Results: US11066425B1, “Oxo-substituted compound” (SUMITOMO DAINIPPON PHARMA CO., LTD., priority 2018, dated 2021)
Values joined by “and” are separate entries in the source; they are usually repeats but may differ in a detail not shown here. Identical values can stand only once. Counter-ions that a name gives are not always drawn.

Experiments:
[1] = system: β-lactamase producing bacteria; experiment: Test Example 3: MIC of meropenem (MEPM) combined with test compound at fixed 4 μg/mL, broth microdilution, ratio to MEPM alone; format: cell-based; conditions: for MIC of MEPM in combination with a test compound: test compound at fixed 4 μg/mL, numerator of the cell; for MIC of MEPM alone: no test compound, denominator of the cell, comparator for the example, in µg/mL
Protocol: Test Example 3: Evaluation of Minimum Inhibitory Concentration (MIC) of MEPM Against β-Lactamase Producing Bacteria
To evaluate the β-lactamase inhibitory activity of test compounds, the effect of combination of a test compound and a β-lactam agent against β-lactamase producing bacteria was evaluated. Meropenem (MEPM) was used as a β-lactam antimicrobial agent. The minimum inhibitory concentration (MIC) of MEPM against β-lactamase producing bacteria when a test compound was added at a fixed concentration (4 μg/mL) was measured by broth microdilution method (common ratio: 2).

[2] = system: β-lactamase producing bacteria; experiment: Test Example 1: MIC of meropenem (MEPM) combined with test compound at fixed 4 μg/mL, broth microdilution; format: cell-based; conditions: relative to MEPM alone
Protocol: Test Example 1: Evaluation of Minimum Inhibitory Concentration (MIC) of MEPM Against β-Lactamase Producing Bacteria
To evaluate the β-lactamase inhibitory activity of test compounds, the effect of combination of a test compound and a β-lactam agent against β-lactamase producing bacteria was evaluated. Meropenem (MEPM) was used as a β-lactam antimicrobial agent. The minimum inhibitory concentration (MIC) of MEPM against β-lactamase producing bacteria when a test compound was added at a fixed concentration (4 μg/mL) was measured by broth microdilution method (common ratio: 2). MIC of MEPM decreasing to less than 1/32 in combination with a test compound is indicated by A, decreasing from 1/32 to 1/16 is indicated by B, decreasing from ⅛ to ¼ is indicated by C, and decreasing to ½ or others are indicated by D. “-” represents untested cases.

[3] = K. pneumoniae ATCC BAA-2344 (KPC)
[4] = K. pneumoniae ATCC BAA-2524 (OXA-48)

Compound | Decrease of MIC of MEPM in combination with a test compound, K. pneumoniae ATCC BAA-2344 (KPC) [2] | Decrease of MIC of MEPM in combination with a test compound, K. pneumoniae ATCC BAA-2524 (OXA-48) [2] | also measured
4,4-dihydroxy-8-({1-[3-(pyrrolidin-2-yl)propanoyl]azetidin-3-yl}oxy)-5-oxa-4-boranuidabicyclo[4.4.0]deca-l(6),7,9-triene-7-carboxylic acid disodium salt [Example 118] |  |  | MIC of MEPM in combination with a test compound [1, 3]: ≤ 0.063 µg/mL; MIC of MEPM in combination with a test compound [1, 4]: ≤ 0.063 µg/mL
CC(C)[C@@H](N)C(=O)N1CC(Oc2ccc3c(c2C(=O)O)O[B-](O)(O)CC3)C1 [Example 28, 4,4-dihydroxy-8-[(1-D-valylazetidin-3-yl)oxy]-5-oxa-4-boranuidabicyclo[4.4.0]deca-l(6),7,9-triene-7-carboxylic acid disodium salt] | A (MIC of MEPM decreasing to less than 1/32 in combination with a test compound is indicated by A) | B (decreasing from 1/32 to 1/16 is indicated by B) | Decrease of MIC of MEPM in combination with a test compound, E. coli ATCC BAA-2340 (KPC) [2]: A (MIC of MEPM decreasing to less than 1/32 in combination with a test compound is indicated by A)
N[C@@H](Cc1cnc[nH]1)C(=O)N1CC(Oc2ccc3c(c2C(=O)O)O[B-](O)(O)CC3)C1 [Example 29, 8-[(1-L-histidylazetidin-3-yl)oxy]-4,4-dihydroxy-5-oxa-4-boranuidabicyclo[4.4.0]deca-l(6),7,9-triene-7-carboxylic acid disodium salt] | A (MIC of MEPM decreasing to less than 1/32 in combination with a test compound is indicated by A) | B (decreasing from 1/32 to 1/16 is indicated by B) | 
CCN1CCN(C(=O)N[C@@H](C(=O)N2CC(Oc3ccc4c(c3C(=O)O)O[B-](O)(O)CC4)C2)c2ccccc2)C(=O)C1=O [Example 30, 8-[(1-{(2R)-2-[(4-ethyl-2,3-dioxopiperazine-1-carbonyl)amino]-2-phenylacetyl}azetidin-3-yl)oxy]-4,4-dihydroxy-5-oxa-4-boranuidabicyclo[4.4.0]deca-l(6),7,9-triene-7-carboxylic acid disodium salt] | A (MIC of MEPM decreasing to less than 1/32 in combination with a test compound is indicated by A) | B (decreasing from 1/32 to 1/16 is indicated by B) | 
O=C(O)c1c(OC2CN(C(=O)[C@H]3CCCN3)C2)ccc2c1O[B-](O)(O)CC2 [Example 31, 4,4-dihydroxy-8-[(1-D-prolylazetidin-3-yl)oxy]-5-oxa-4-boranuidabicyclo[4.4.0]deca-l(6),7,9-triene-7-carboxylic acid disodium salt] | A (MIC of MEPM decreasing to less than 1/32 in combination with a test compound is indicated by A) | B (decreasing from 1/32 to 1/16 is indicated by B) | 
O=C(O)c1c(OC2CN(C(=O)[C@@H]3CCCN3)C2)ccc2c1O[B-](O)(O)CC2 [Example 32, 4,4-dihydroxy-8-[(1-L-prolylazetidin-3-yl)oxy]-5-oxa-4-boranuidabicyclo[4.4.0]deca-l(6),7,9-triene-7-carboxylic acid disodium salt] | A (MIC of MEPM decreasing to less than 1/32 in combination with a test compound is indicated by A) | B (decreasing from 1/32 to 1/16 is indicated by B) | 
NCCc1cn(CC(=O)N2CC(Oc3ccc4c(c3C(=O)O)O[B-](O)(O)CC4)C2)cn1 [Example 33, 8-[(1-{[4-(2-aminoethyl)-1H-imidazol-1-yl]acetyl}azetidin-3-yl)oxy]-4,4-dihydroxy-5-oxa-4-boranuidabicyclo[4.4.0]deca-l(6),7,9-triene-7-carboxylic acid disodium salt] | A (MIC of MEPM decreasing to less than 1/32 in combination with a test compound is indicated by A) | B (decreasing from 1/32 to 1/16 is indicated by B) | 
O=C(O)c1c(OC2CN(C(=O)c3ccc(O)c(O)c3)C2)ccc2c1OB(O)CC2 [Example 34, 7-{[1-(3,4-dihydroxybenzoyl)azetidin-3-yl]oxy}-2-hydroxy-3,4-dihydro-2H-1,2-benzoxaborinine-8-carboxylic acid] | A (MIC of MEPM decreasing to less than 1/32 in combination with a test compound is indicated by A) | B (decreasing from 1/32 to 1/16 is indicated by B) | 
O=C(O)c1c(OC2CN(C(=O)NO)C2)ccc2c1OB(O)CC2 [Example 35, 2-hydroxy-7-{[1-(hydroxycarbamoyl)azetidin-3-yl]oxy}-3,4-dihydro-2H-1,2-benzoxaborinine-8-carboxylic Acid] | A (MIC of MEPM decreasing to less than 1/32 in combination with a test compound is indicated by A) | B (decreasing from 1/32 to 1/16 is indicated by B) | Decrease of MIC of MEPM in combination with a test compound, E. coli ATCC BAA-2340 (KPC) [2]: A (MIC of MEPM decreasing to less than 1/32 in combination with a test compound is indicated by A)
Cl.Cl.NC(C(=O)N1CC(Oc2ccc3c(c2C(=O)O)OB(O)CC3)C1)c1c[nH]cn1 (centres unmarked) [Example 40, 7-({1-[2-amino-2-(1H-imidazol-4-yl)(2H)ethanoyl]azetidin-3-yl}oxy)-2-hydroxy-3,4-dihydro-2H-1,2-benzoxaborinine-8-carboxylic Acid Dihydrochloride] |  |  | MIC of MEPM in combination with a test compound [1, 3]: 0.063 µg/mL; MIC of MEPM in combination with a test compound [1, 4]: 0.063 µg/mL
O=C(O)c1c(OC2CN(C(=O)C[C@@H]3CCCN3)C2)ccc2c1O[B-](O)(O)CC2.O=C(O)c1c(OC2CN(C(=O)C[C@@H]3CCCN3)C2)ccc2c1O[B-](O)(O)CC2.[Na+].[Na+] [Example 127, 4,4-dihydroxy-8-[(1-{[(2S)-pyrrolidin-2-yl]acetyl}azetidin-3-yl)oxy]-5-oxa-4-boranuidabicyclo[4.4.0]deca-l(6),7,9-triene-7-carboxylic acid disodium salt] |  |  | MIC of MEPM in combination with a test compound [1, 3]: ≤ 0.063 µg/mL; MIC of MEPM in combination with a test compound [1, 4]: ≤ 0.063 µg/mL
C[C@@H](O)[C@H]1C(=O)N2C(C(=O)O)=C(S[C@@H]3CN[C@H](C(=O)N(C)C)C3)[C@H](C)[C@H]12 [MEPM, meropenem, reference compound] |  |  | MIC of MEPM alone ([1]; E. coli ATCC BAA-2340 (KPC)): 4 and 8; MIC of MEPM alone [1, 4]: 2 and 1
